The results in this text go back to ChEMBL document CHEMBL1136587, “Optimisation of aryl substitution leading to potent methionyl tRNA synthetase inhibitors with excellent gram-positive antibacterial activity” (Bioorg Med Chem Lett, 2003).

In brackets after ≈: the same amount, converted by molar mass. Some results are limits rather than exact numbers.

In one test the test system is Staphylococcus aureus. Put plainly: In vitro Antibacterial activity of compound against Staphylococcus aureus Oxford. It is filed as functional.
For test [1], the target named is Methionine--tRNA ligase (Enterococcus faecalis (strain ATCC 700802 / V583)) (UniProt Q837B3). Put plainly: In vitro Antibacterial activity of compound against Enterococcus faecalis 7. It is filed as functional.
Methionine--tRNA ligase (Enterococcus faecalis (strain ATCC 700802 / V583)), sequence (Q837B3 whole entry): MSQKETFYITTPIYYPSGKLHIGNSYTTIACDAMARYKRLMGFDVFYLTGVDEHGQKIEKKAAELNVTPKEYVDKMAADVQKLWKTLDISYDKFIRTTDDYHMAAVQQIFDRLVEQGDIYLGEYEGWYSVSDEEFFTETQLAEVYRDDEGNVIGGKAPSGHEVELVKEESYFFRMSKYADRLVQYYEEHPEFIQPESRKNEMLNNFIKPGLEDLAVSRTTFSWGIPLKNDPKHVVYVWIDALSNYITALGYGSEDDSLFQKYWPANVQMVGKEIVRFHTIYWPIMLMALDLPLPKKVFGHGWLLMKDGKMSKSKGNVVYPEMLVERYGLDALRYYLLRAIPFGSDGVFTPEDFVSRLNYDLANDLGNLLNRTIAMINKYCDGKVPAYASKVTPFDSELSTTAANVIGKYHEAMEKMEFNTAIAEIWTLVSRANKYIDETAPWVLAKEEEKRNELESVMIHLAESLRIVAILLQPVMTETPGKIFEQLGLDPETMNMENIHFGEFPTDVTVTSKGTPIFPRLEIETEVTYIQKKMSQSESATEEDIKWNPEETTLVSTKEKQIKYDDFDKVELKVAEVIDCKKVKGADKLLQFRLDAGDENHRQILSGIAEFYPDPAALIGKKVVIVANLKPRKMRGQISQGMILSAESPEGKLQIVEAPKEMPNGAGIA

`Oc1cc(NCCCNCc2ccc(Cl)cc2Cl)nc2ccccc12`: the MIC (against Staphylococcus aureus; in test [1]) was 4 µg/mL (≈ 10.6 µM) each time.

In the case of `Oc1cc(NCCCNCc2cc(Cl)cc(Cl)c2Cl)nc2ccccc12`, the results for the MIC (in the test with Staphylococcus aureus; in test [1]) were 0.25 µg/mL (≈ 0.609 µM) and less than 0.06 µg/mL, respectively.

For `Oc1cc(NCCCNCc2cccc(Cl)c2Cl)nc2ccccc12`, the MIC in the test on Staphylococcus aureus came out at 8 µg/mL (≈ 21.3 µM); in test [1] it was 2 µg/mL (≈ 5.32 µM).
